Measured values reported in publication PMC8318231, “Rate-of-Kill (RoK) assays to triage large compound sets for Chagas disease drug discovery: Application to GSK Chagas Box” (PLoS Neglected Tropical Diseases, 2021).

Test system: H9c2 (rat cardiomyocytes)
Experiment: RoK assay, number of host cells nuclei (drug-related cytotoxicity, H9c2 output, Cmin_Tox)
Conditions: H9c2 host cells
In short: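 H9c2 rat cardiomyocytes infected with T. cruzi trypomastigotes, plated in 384-well format, compound-treated and imaged over a time course. Host nuclei counted after formaldehyde fixation and DRAQ5 staining by high-content imaging. Cmin_Tox is the lowest concentration reducing host cells below 50% of initial density.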

CCC(=O)Nc1ccc(C(=O)Nc2ccccc2-c2ccccc2)cc1 [TCMDC-143286]
Cmin_Tox: >50 µM

FC(F)(F)c1cc(C2CCCN(Cc3c[nH]c4ccccc34)C2)nc2ncnn12.O=C(O)C(O)C(O)C(=O)O (stereo not drawn) [TCMDC-143311]
Cmin_Tox: >50 µM

CCN(CC)S(=O)(=O)c1ccc(C(=O)Nc2cc(C)nn2-c2nc(C)c(C)c(=O)[nH]2)cc1 [TCMDC-143273]
Cmin_Tox: >50 µM

CC(=O)Nc1nc(-c2cc(C)ccc2C)c(C)s1 [TCMDC-143207]
Cmin_Tox: >50 µM

Cc1cccc(N2CCCN(Cc3c[nH]c4ccccc34)CC2)n1 [TCMDC-143185]
Cmin_Tox: 5.6 µM

COc1ccc(C(C)N(C)c2ncc3c(N)nc(N)nc3n2)cc1F (stereo not drawn) [TCMDC-143298]
Cmin_Tox: >50 µM

O=C(NCc1ccncc1)c1ccccc1N1CCCN(C(=O)Cc2ccc(F)c(F)c2)CC1.O=C(O)C(F)(F)F.O=C(O)C(F)(F)F [TCMDC-143300]
Cmin_Tox: >50 µM

Cc1cccnc1CN1CCN(CCCOc2ccc(-c3ccc(C(N)=O)cc3)cc2)CC1 [TCMDC-143291]
Cmin_Tox: >50 µM

COc1ccc(S(=O)(=O)Nc2ccccc2OC)cc1NC(=O)CCCc1c[nH]c2ccccc12 [TCMDC-143256]
Cmin_Tox: >50 µM

CS(=O)(=O)c1ccc(CC(=O)Nc2nc(-c3ccc(Cl)s3)cs2)cc1 [TCMDC-143224]
Cmin_Tox: >50 µM

COc1ccc(C(C)(C)C)cc1S(=O)(=O)n1ccnc1 [TCMDC-143275]
Cmin_Tox: >50 µM

Cc1c(C(=O)NCCCCn2ccnc2)oc2c(C)cccc12 [TCMDC-143304]
Cmin_Tox: >50 µM

COc1ccc2c(Cl)c(C(=O)N3CCC3)sc2c1Cl [TCMDC-143262]
Cmin_Tox: >50 µM

CC1CN(S(=O)(=O)c2ccc(NC(=O)c3cc(C4CC4)nc4c3cnn4C(C)C)cc2)CC(C)O1 (stereo not drawn) [TCMDC-143200]
Cmin_Tox: >50 µM

O=C(NCCc1cccnc1)c1ccc(-c2ccccc2F)o1 [TCMDC-143190]
Cmin_Tox: >50 µM

O=S(=O)(c1cccc(CSc2nnc(-c3ccc4c(c3)OCO4)o2)c1)N1CCOCC1 [TCMDC-143197]
Cmin_Tox: >50 µM

COc1ccc(S(=O)(=O)NC(C)C)cc1Nc1ncc(-c2cccc(F)c2)cn1 [TCMDC-143248]
Cmin_Tox: >50 µM

CCN(C)Cc1ccc(N2CCC(NS(=O)(=O)c3ccc4c(c3)CCO4)CC2)nc1 [TCMDC-143244]
Cmin_Tox: >50 µM

O=C(NCCc1cccnc1)c1csc(-c2ccccc2)n1 [TCMDC-143203]
Cmin_Tox: >50 µM

O=C(NCCc1ccccc1Cl)c1cccn1-c1cccnc1 [TCMDC-143253]
Cmin_Tox: >50 µM

COc1ccc(C(=O)Nc2cc(C(F)(F)F)ccc2N2CCOCC2)c(OC)c1 [TCMDC-143310]
Cmin_Tox: >50 µM

Cn1nccc1-c1cc(OC(CN)c2ccccc2)cnc1-c1ccco1.O=C(O)C(F)(F)F.O=C(O)C(F)(F)F (stereo not drawn) [TCMDC-143221]
Cmin_Tox: >50 µM

Cl.O=c1cc(NCCCNC2CCOc3c(I)cc(Cl)cc32)[nH]c2ccccc12 (stereo not drawn) [TCMDC-139489]
Cmin_Tox: 50.0 µM

O=C(NCC1CCCCC1)c1cc(=O)c2ccccc2o1 [TCMDC-123621]
Cmin_Tox: 50.0 µM

COc1ccc(NS(=O)(=O)c2cc(NC(=O)Cc3ccc(C)cc3)ccc2N2CCOCC2)cc1 [TCMDC-143313]
Cmin_Tox: 0.6 µM

COc1ccc(NS(=O)(=O)c2cc(-c3cc(C)[nH]n3)ccc2C)cc1OC [TCMDC-143194]
Cmin_Tox: 18.5 µM

CS(=O)(=O)NC1CCC(Oc2cc3cnccc3cc2-c2ccsc2)CC1.O=C(O)C(F)(F)F (stereo not drawn) [TCMDC-143302]
Cmin_Tox: >50 µM

CCCn1c(NC(=O)Cc2ccc(Cl)cc2)nc2ccccc21 [TCMDC-143279]
Cmin_Tox: >50 µM

COc1cc(NC(=O)Nc2cccc(CNC(=O)OC3CCCCC3)c2)ccc1-c1cnco1 [TCMDC-143376]
Cmin_Tox: 16.7 µM

O=C(O)C(F)(F)F.O=c1ccc2ccc(F)c3c2n1C[C@H]3CN1CCC(NCc2cc3ccccc3o2)CC1 [TCMDC-143301]
Cmin_Tox: >50 µM
